Source: US20230303570A1, “KINASE INHIBITORS AND USES THEREOF” (ABM Therapeutics Corporation, priority 2020, published 2023)

Legend:
[1] = Mouse pharmacokinetics study (intravenous and oral); type: in vivo; details: CD-1 mice
From the text: The test articles were formulated in […] Hydroxypropyl-beta-cyclodextrin, either as a clear solution or fine suspension.

[2] = molecular target: c-Kit (Homo sapiens, UniProt P10721); test: cKit kinase mobility shift assay; type: biochemical
Description: (§1) The effect of the compounds on the activity of cKit, RET and AXL kinases were assessed by Mobility shift assay. • 1. 1× kinase base buffer and stop buffer for testing kinases were prepared • 1-1) 1× Kinase base buffer (50 mM HEPES, pH 7.5, 0.01% Triton X-100) • 1-2) Stop buffer (100 mM HEPES, pH 7.5, 0.015% Brij-35, 0.2% Coating Reagent #3, 50 mM EDTA) • 2. Compound and assay plate preparation: the compound was diluted to 50× of the final desired highest inhibitor concentration in reaction by 100% DMSO. 100 μl of this compound dilution was transferred to a well in a 96-well plate. For example, if the highest desired concentration was 5 μM, then 250 μM of compound DMSO solution was prepared in this step. For all compounds, the compound was serially diluted by transferring 10 μl to 70 μl of 100 DMSO in the next well and so forth for a total of 5 concentrations. 100 μl of 100% DMSO was added to two empty wells for no compound control and no enzyme control in the same 96-well plate. The plate was labeled as source plate. The intermediate plate was prepared by transferring 10 μl of compound from source plate to a new 96-well plate as the intermediate plate, adding 90 μl of 1× kinase buffer to each well of the intermediate plate, mixing the compounds in intermediate plate for 10 min on shaker. 5 μl of each well from the 96-well intermediate plate were transferred to a 384-well plate in duplicates. For example, A1 of the 96-well plate was transferred to A1 and A2 of the 384-well plate. A2 of the 96-well plate was transferred to A3 and A4 of the 384-well plate, and so on. • 4. Kinase reaction: The assay plate already contained 5 μl of compound in 10% DMSO. A 2.5× enzyme solution was prepared by adding kinases (cKit, RET, or AXL) and DTT in 1× kinase base buffer. 2.5× enzyme solution was transferred to the assay plate (by adding 10 μl of 2.5× enzyme solution to each well of the 384-well assay plate). The plate was incubated at room temperature for 10 min. 2.5× peptide solution was prepared by adding FAM-labeled peptide, ATP, MgCl2 in the 1× kinase base buffer. 2.5× peptide solution was added to the assay plate by adding 10 μl of 2.5× peptide solution to each well of the 384-well assay plate. The plate was incubated at 28° C. for the specified period of time. 25 μl of stop buffer was added to stop reaction. Data was collected on Caliper.

[3] = molecular target: T1, Axl (Homo sapiens, UniProt P30530); test: AXL kinase mobility shift assay; type: biochemical
T1 sequence (P30530 26-894): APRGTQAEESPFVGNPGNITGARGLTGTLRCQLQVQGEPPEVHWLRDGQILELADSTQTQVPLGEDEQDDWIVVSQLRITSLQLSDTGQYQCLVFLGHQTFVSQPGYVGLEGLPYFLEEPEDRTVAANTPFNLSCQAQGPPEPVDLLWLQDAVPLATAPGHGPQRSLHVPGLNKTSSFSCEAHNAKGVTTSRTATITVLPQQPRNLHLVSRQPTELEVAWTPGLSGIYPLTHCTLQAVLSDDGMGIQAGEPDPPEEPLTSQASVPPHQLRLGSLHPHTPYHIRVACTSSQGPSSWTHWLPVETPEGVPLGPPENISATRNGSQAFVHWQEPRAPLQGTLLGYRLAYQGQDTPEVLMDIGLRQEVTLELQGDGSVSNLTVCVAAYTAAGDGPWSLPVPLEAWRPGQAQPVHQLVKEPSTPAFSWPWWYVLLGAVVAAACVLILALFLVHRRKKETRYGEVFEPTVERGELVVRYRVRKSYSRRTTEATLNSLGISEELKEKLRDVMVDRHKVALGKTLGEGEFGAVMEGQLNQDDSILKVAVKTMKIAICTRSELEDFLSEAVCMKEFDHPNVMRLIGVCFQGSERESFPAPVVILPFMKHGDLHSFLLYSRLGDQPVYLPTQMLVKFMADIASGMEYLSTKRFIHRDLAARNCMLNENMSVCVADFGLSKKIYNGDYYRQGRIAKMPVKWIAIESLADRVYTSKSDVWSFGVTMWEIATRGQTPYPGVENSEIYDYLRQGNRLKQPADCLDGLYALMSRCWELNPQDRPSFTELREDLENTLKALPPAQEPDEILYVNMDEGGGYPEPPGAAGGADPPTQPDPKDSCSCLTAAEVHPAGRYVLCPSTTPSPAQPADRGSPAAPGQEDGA
Description: as §1

[4] = molecular target: HPK1 (MAP4K1) (Homo sapiens, UniProt Q92918); test: HPK1 (MAP4K1) kinase Lantha screen assay; type: biochemical
Procedure, shortened: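 Recombinant MAP4K1 preincubated 10 min with compound (6-point dilution, duplicates) in 50 mM HEPES pH 7.5, 10 mM MgCl2, then reacted with Fluorescein-PKC substrate and ATP for 90 min at room temperature. Antibody detection solution stopped reaction; after 60 min, TR-FRET read at ex 340 nm, em 520/495 nm.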

[5] = molecular target: PAK1 (Homo sapiens, UniProt Q13153); test: In vitro kinase assay, PAK1 (Caliper EZ Reader conversion); type: biochemical; parameters: purchased Carna Biosciences
Procedure, shortened: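 Human PAK1 was preincubated with compound (6 concentrations, 4-fold dilutions) for 10 min at room temperature, then reacted with substrate mix for 30 and 60 min. Substrate conversion was read by Caliper mobility shift. IC50 was fitted by variable-slope log(inhibitor)–response, normalised to FRAX597 and buffer controls.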

c-Kit, sequence (P10721 26-976): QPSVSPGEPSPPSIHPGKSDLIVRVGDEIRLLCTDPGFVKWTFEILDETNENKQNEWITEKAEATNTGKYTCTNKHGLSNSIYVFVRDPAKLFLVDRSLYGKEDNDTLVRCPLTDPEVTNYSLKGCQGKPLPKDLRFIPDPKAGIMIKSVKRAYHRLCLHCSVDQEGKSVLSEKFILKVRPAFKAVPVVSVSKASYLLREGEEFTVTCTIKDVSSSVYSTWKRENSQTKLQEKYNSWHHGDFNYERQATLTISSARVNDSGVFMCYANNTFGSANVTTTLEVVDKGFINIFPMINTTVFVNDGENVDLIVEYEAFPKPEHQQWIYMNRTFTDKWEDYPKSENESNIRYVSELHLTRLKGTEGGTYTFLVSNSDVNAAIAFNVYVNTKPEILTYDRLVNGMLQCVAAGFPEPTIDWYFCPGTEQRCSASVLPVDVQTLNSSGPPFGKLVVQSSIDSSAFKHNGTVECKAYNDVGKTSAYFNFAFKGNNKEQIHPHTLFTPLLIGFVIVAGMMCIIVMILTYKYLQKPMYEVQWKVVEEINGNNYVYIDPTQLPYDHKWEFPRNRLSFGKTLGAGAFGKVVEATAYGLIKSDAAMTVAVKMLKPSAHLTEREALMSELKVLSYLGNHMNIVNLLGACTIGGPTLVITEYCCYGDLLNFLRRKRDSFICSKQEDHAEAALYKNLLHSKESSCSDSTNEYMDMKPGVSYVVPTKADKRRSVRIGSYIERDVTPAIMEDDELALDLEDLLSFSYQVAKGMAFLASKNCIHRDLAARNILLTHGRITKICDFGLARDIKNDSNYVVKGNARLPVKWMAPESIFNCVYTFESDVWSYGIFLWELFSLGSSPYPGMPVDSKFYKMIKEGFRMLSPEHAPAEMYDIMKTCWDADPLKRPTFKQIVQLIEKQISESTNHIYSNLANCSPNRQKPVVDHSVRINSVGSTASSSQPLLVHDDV
HPK1 (MAP4K1), sequence (Q92918 whole entry, species assumed): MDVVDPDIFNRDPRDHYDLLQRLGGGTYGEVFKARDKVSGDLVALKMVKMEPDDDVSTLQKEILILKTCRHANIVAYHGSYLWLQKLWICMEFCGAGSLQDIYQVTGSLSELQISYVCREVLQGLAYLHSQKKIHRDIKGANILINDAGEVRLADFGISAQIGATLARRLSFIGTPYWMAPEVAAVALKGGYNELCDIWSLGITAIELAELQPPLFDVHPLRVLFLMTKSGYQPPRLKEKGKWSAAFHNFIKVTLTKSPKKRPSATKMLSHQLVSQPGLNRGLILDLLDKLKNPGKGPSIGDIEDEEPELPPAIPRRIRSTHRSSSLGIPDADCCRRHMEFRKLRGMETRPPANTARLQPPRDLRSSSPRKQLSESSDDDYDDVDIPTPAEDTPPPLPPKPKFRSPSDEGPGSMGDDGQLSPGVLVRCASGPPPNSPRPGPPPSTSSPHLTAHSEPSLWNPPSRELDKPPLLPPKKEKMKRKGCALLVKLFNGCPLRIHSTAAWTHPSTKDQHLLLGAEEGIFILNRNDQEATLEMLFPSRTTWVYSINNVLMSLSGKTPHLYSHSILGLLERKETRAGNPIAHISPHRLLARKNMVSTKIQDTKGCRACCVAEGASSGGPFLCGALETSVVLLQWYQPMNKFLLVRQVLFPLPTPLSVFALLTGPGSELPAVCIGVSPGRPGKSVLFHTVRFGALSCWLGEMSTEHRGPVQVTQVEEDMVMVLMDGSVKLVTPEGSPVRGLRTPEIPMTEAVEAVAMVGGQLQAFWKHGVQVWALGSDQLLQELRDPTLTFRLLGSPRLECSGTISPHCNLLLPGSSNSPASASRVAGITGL
PAK1, sequence (Q13153 whole entry): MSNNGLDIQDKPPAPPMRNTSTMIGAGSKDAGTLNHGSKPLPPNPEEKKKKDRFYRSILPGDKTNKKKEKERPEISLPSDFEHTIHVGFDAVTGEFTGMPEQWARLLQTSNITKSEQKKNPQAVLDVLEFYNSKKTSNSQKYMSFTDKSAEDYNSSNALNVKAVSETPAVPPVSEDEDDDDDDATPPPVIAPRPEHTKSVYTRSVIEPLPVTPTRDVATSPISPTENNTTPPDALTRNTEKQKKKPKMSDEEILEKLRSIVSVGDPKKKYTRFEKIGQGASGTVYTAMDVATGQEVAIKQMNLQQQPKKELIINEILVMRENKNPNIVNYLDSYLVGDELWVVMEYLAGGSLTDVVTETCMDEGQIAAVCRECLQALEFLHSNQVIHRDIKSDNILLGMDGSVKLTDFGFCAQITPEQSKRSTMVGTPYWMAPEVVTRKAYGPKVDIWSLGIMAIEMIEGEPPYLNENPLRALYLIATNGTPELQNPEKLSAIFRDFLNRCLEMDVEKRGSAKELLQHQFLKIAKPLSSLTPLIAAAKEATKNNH

IC50 [2] | IC50 [3] | IC50 [4] | SMILES | also measured
 | > 10000 nM |  | CNc1ncc2c(n1)N1CCN=C1C(c1c(C)ccc(NS(=O)(=O)c3c(Cl)cccc3Cl)c1F)=C2 [Compound 296, 2,6-dichloro-N-(2-fluoro-4-methyl-3-(2-(methylamino)-8,9-dihydroimidazo[1′,2′:1,6]pyrido[2,3-d]pyrimidin-6-yl)phenyl)benzenesulfonamide] | 
100 to 10000 nM |  | < 100 nM | Cc1cc(F)c(NC(=O)c2cc(C(F)(F)F)ccn2)cc1C1=Cc2cnc(NC3COC3)nc2N2CCN=C12 [Compound 178, N-(2-fluoro-4-methyl-5-(2-(oxetan-3-ylamino)-8,9-dihydroimidazo[1′,2′:1,6]pyrido[2,3-d]pyrimidin-6-yl)phenyl)-4-(trifluoromethyl)picolinamide] | F ([1]; PO 25 mg/kg): 66.7 ± 14.3%; Vd ([1]; mouse, plasma, IV 5 mg/kg): 4.06 ± 0.37 L/kg; half-life ([1]; mouse, plasma, IV 5 mg/kg): 2.76 ± 0.22 h; clearance ([1]; mouse, plasma, IV 5 mg/kg, read-out: Clp): 17 ± 0.3 mL/min/kg; AUC ([1]; mouse, plasma, PO 25 mg/kg): 16300 ± 3490 ng·h/mL; Cmax ([1]; mouse, plasma, PO 25 mg/kg): 2560 ± 505 ng/mL; Tmax ([1]; mouse, plasma, PO 25 mg/kg): 2 h
 | > 10000 nM |  | CNc1ncc2c(n1)N1CCN=C1C(c1cc(NS(=O)(=O)c3ccccc3Cl)c(F)cc1C)=C2 [Compound 286, 2-chloro-N-(2-fluoro-4-methyl-5-(2-(methylamino)-8,9-dihydroimidazo[1′,2′:1,6]pyrido[2,3-d]pyrimidin-6-yl)phenyl)benzenesulfonamide] | 
 | > 10000 nM |  | Cc1ccc(NS(=O)(=O)c2ccccc2Cl)c(F)c1C1=Cc2cnc(NC3COC3)nc2N2CCN=C12 [Compound 303, 2-chloro-N-(2-fluoro-4-methyl-3-(2-(oxetan-3-ylamino)-8,9-dihydroimidazo[1′,2′:1,6]pyrido[2,3-d]pyrimidin-6-yl)phenyl)benzenesulfonamide] | 
< 100 nM |  |  | O=C(Nc1ccccc1)Nc1cc(C2=Cc3cnc(NC4COC4)nc3N3CCN=C23)c(Br)cc1F [Compound 328, 1-(4-bromo-2-fluoro-5-(2-(oxetan-3-ylamino)-8,9-dihydroimidazo[1′,2′:1,6]pyrido[2,3-d]pyrimidin-6-yl)phenyl)-3-phenylurea] | 

Second part, the molecule before the results:

SMILES | IC50 [2] | IC50 [3] | IC50 [4] | also measured
Cc1ccc(NC(=O)c2cc(C(C)(C)F)ccn2)cc1C1=Cc2cnc(Nc3cnn(C)c3)nc2N2CCN=C12 [Compound 196, 4-(2-fluoropropan-2-yl)-N-(4-methyl-3-(2-((1-methyl-1H-pyrazol-4-yl)amino)-8,9-dihydroimidazo[1′,2′:1,6]pyrido[2,3-d]pyrimidin-6-yl)phenyl)picolinamide] | < 100 nM |  |  | AUC ([1]; mouse, plasma, PO 25 mg/kg): 11300 ± 3010 ng·h/mL; Cmax ([1]; mouse, plasma, PO 25 mg/kg): 1060 ± 108 ng/mL; Tmax ([1]; mouse, plasma, PO 25 mg/kg): 1.33 ± 0.58 h
CNc1ncc2c(n1)N1CCN=C1C(c1ccc(C(=O)Nc3cc(C(F)(F)F)ccn3)cc1)=C2 [Compound 273, 4-(2-(methylamino)-8,9-dihydroimidazo[1′,2′:1,6]pyrido[2,3-d]pyrimidin-6-yl)-N-(4-(trifluoromethyl)pyridin-2-yl)benzamide] |  | 100 to 10000 nM |  | 
CNc1ncc2c(n1)N1CCN=C1C(c1cc(NC(=O)Nc3ccccc3Cl)c(F)cc1C)=C2 [Compound 331, 1-(2-chlorophenyl)-3-(2-fluoro-4-methyl-5-(2-(methylamino)-8,9-dihydroimidazo[1′,2′:1,6]pyrido[2,3-d]pyrimidin-6-yl)phenyl)urea] | < 100 nM |  | 100 to 10000 nM | 
CNc1ncc2c(n1)N1CCN=C1C(c1cc(NC(=O)NCCC(C)(C)C)c(F)cc1C)=C2 [Compound 317, 1-(3,3-dimethylbutyl)-3-(2-fluoro-4-methyl-5-(2-(methylamino)-8,9-dihydroimidazo[1′,2′:1,6]pyrido[2,3-d]pyrimidin-6-yl)phenyl)urea] | < 100 nM |  | 100 to 10000 nM | 
CNc1ncc2c(n1)N1CCN=C1C(Oc1ccc(NC(=O)C3(C(=O)Nc4ccc(F)cc4)CC3)cc1)=C2 [Compound 345, N-(4-fluorophenyl)-N-(4-((2-(methylamino)-8,9-dihydroimidazo[1′,2′:1,6]pyrido[2,3-d]pyrimidin-6-yl)oxy)phenyl)cyclopropane-1,1-dicarboxamide] |  | 100 to 10000 nM |  | 
CNc1ncc2c(n1)N1CCN=C1C(c1ccc(C(=O)Nc3ccccc3Cl)cc1)=C2 [Compound 275, N-(2-chlorophenyl)-4-(2-(methylamino)-8,9-dihydroimidazo[1′,2′:1,6]pyrido[2,3-d]pyrimidin-6-yl)benzamide] |  | 100 to 10000 nM |  | 
CN1CCN(c2ccc(Nc3ncc4c(n3)N3CCN=C3C(c3ccccc3Cl)=C4)cn2)CC1 [Compound 92, 6-(2-chlorophenyl)-N-(6-(4-methylpiperazin-1-yl)pyridin-3-yl)-8,9-dihydroimidazo[1′,2′:1,6]pyrido[2,3-d]pyrimidin-2-amine] | 100 to 10000 nM |  |  | IC50 [5]: 100 to 10000 nM
CNc1ncc2c(n1)N1CCN=C1C(c1cc(NC(=O)NCCC(F)(F)F)c(F)cc1C)=C2 [Compound 316, 1-(2-fluoro-4-methyl-5-(2-(methylamino)-8,9-dihydroimidazo[1′,2′:1,6]pyrido[2,3-d]pyrimidin-6-yl)phenyl)-3-(3,3,3-trifluoropropyl)urea] | 100 to 10000 nM |  | > 10000 nM | 
CNc1ncc2c(n1)N1CCN=C1C(c1cc(NC(=O)Nc3ccc(Cl)cc3F)c(F)cc1C)=C2 [Compound 337, 1-(4-chloro-2-fluorophenyl)-3-(2-fluoro-4-methyl-5-(2-(methylamino)-8,9-dihydroimidazo[1′,2′:1,6]pyrido[2,3-d]pyrimidin-6-yl)phenyl)urea] | < 100 nM |  |  | 
Cc1ccc(NC(=O)c2cc(C(F)(F)F)ccn2)cc1C1=Cc2cnc(Nc3cnn(C)c3)nc2N2CCN=C12 [Compound 195, N-(4-methyl-3-(2-((1-methyl-1H-pyrazol-4-yl)amino)-8,9-dihydroimidazo[1′,2′:1,6]pyrido[2,3-d]pyrimidin-6-yl)phenyl)-4-(trifluoromethyl)picolinamide] | < 100 nM |  | < 100 nM | 
Cc1ccc(NC(=O)c2cc(C(F)(F)F)ccn2)cc1C1=Cc2cnc(Nc3cccc(CO)c3)nc2N2CCN=C12 [Compound 229, N-(3-(2-((3-(hydroxymethyl)phenyl)amino)-8,9-dihydroimidazo[1′,2′:1,6]pyrido[2,3-d]pyrimidin-6-yl)-4-methylphenyl)-4-(trifluoromethyl)picolinamide] | < 100 nM |  | < 100 nM | 
CNc1ncc2c(n1)N1CCN=C1C(c1c(C)ccc(NC(=O)c3cc(C(F)(F)F)ccn3)c1F)=C2 [Compound 140, N-(2-fluoro-4-methyl-3-(2-(methylamino)-8,9-dihydroimidazo[1′,2′:1,6]pyrido[2,3-d]pyrimidin-6-yl)phenyl)-4-(trifluoromethyl)picolinamide] | 100 to 10000 nM |  |  | 
